Assay results taken from ChEMBL document CHEMBL1201862, “PubChem BioAssay data set” (2004).
The source made the active and inactive calls.

Legend:
[1] = inhibitors of Vif binding to APOBEC3G peptide, primary screen, biochemical, TR-FRET, GST-Vif 1-94, biotin-A3G peptide, dose response retest (AID 1117319); type: functional;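 further: TR-FRET signal of purified GST-Vif binding a biotinylated A3G peptide; inhibitors lower the FRET signal by blocking Vif and A3G binding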
[2] = target: T1, RNA-editing ligase 1, mitochondrial (Trypanosoma brucei brucei, UniProt P86926); test: TbREL1 ligase inhibitors, dose response, biochemical, fluorescence, Trypanosoma brucei (AID 1117295); type: functional
T1 sequence (P86926 whole entry): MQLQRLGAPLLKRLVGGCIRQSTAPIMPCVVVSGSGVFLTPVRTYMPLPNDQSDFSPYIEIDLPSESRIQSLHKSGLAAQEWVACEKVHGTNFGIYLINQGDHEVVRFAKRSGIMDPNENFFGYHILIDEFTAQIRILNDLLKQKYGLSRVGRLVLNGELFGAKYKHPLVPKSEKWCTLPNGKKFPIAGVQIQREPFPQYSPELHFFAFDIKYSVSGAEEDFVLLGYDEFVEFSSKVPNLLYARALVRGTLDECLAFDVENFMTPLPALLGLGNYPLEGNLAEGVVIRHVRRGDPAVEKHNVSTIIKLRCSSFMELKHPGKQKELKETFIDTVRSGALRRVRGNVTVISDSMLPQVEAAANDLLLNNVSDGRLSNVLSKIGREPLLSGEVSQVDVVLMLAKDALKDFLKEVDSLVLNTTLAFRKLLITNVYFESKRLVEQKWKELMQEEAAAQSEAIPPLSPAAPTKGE

Protein RecA = target: T2, Protein RecA (Mycobacterium tuberculosis, UniProt P9WHJ3); test: Fluorescence Cell-Free Homogeneous Dose Retest to Identify Inhibitors of RecA-Intein Splicing Activity. [Related pubchem assays (depositor defined):AID2097, AID2223, AID489010, AID492950]; type: functional
T2 sequence (P9WHJ3 whole entry): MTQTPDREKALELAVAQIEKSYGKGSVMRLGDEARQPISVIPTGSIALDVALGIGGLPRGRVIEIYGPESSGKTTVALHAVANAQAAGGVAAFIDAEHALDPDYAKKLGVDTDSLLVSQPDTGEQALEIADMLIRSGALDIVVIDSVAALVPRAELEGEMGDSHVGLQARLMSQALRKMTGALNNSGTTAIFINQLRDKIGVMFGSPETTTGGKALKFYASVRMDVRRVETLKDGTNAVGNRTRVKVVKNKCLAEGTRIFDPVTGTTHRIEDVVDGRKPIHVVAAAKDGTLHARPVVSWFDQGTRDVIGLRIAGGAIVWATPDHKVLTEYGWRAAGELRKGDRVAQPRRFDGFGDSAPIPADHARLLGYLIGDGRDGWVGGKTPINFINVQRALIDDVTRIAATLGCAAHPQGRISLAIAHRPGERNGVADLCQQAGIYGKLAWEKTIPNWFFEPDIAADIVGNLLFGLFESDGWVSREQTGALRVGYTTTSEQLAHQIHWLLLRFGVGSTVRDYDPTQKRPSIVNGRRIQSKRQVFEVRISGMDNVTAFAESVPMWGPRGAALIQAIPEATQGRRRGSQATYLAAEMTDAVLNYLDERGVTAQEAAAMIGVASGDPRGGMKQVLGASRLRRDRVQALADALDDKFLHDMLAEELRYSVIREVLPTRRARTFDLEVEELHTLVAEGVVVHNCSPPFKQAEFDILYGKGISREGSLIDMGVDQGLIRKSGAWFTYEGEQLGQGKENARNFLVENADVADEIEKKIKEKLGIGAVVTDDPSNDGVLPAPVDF

Caspase-6 = target: T3, Caspase-6 (Homo sapiens, UniProt P55212); test: human caspase-6 inhibitors, dose response, biochemical, VEID-R110 fluorescence, cherry-pick (AID 720632)
T3 sequence (P55212 whole entry): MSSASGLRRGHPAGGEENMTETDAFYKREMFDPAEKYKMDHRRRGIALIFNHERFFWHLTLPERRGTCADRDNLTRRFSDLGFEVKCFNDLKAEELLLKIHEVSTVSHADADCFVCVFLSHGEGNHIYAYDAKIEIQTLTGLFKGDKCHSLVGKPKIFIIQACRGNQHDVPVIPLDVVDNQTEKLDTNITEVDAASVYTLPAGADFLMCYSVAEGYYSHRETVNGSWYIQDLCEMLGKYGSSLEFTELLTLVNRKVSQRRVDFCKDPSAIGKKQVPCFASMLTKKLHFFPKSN

Caspase-7 = target: T4, Caspase-7 (Homo sapiens, UniProt P55210); test: human caspase-7 inhibitors, dose response, selectivity assay for caspase-6 inhibitor project, biochemical, DEVD-R110 fluorescence, cherry-pick (AID 743295)
T4 sequence (P55210 whole entry): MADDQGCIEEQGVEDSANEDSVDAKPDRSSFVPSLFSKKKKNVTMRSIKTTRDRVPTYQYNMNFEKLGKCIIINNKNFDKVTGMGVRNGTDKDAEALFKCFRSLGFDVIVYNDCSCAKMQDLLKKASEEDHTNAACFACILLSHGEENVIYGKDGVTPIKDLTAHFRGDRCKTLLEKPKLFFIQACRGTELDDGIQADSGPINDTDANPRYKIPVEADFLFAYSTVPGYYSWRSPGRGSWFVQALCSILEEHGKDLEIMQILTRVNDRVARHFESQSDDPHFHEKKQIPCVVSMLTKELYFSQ

Large T antigen = Large T antigen (Simian virus 40, UniProt P03070); type: functional, Betapolyomavirus macacae;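 further: Confirmatory-stage PubChem screen for compounds that inhibit SV40 T antigen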
Caspase-9 = target: T5, Caspase-9 (Homo sapiens, UniProt P55211); test: caspase-9 enzyme inhibition, dose response, selectivity assay for caspase-6 inhibitor project, biochemical, fluorescence, plate reader, cherry-picked samples (AID 743293)
T5 sequence (P55211 whole entry): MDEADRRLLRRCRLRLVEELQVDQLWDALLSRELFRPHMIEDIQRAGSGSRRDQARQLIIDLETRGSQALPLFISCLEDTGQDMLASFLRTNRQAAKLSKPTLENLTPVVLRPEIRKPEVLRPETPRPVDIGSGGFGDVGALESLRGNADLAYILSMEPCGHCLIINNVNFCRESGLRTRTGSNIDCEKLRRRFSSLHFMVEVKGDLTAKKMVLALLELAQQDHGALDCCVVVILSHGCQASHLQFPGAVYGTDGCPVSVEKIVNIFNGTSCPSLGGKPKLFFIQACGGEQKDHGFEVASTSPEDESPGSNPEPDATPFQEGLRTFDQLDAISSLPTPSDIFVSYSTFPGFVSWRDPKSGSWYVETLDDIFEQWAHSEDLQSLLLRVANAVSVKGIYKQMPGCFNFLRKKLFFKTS

[3] = target: T6, Replicative DNA helicase DnaB (Mycobacterium tuberculosis, UniProt P9WMR3); test: DnaB intein splicing inhibitors, dose response, biochemical, cell-free fluorescence (AID 449749); type: functional
T6 sequence (P9WMR3 whole entry): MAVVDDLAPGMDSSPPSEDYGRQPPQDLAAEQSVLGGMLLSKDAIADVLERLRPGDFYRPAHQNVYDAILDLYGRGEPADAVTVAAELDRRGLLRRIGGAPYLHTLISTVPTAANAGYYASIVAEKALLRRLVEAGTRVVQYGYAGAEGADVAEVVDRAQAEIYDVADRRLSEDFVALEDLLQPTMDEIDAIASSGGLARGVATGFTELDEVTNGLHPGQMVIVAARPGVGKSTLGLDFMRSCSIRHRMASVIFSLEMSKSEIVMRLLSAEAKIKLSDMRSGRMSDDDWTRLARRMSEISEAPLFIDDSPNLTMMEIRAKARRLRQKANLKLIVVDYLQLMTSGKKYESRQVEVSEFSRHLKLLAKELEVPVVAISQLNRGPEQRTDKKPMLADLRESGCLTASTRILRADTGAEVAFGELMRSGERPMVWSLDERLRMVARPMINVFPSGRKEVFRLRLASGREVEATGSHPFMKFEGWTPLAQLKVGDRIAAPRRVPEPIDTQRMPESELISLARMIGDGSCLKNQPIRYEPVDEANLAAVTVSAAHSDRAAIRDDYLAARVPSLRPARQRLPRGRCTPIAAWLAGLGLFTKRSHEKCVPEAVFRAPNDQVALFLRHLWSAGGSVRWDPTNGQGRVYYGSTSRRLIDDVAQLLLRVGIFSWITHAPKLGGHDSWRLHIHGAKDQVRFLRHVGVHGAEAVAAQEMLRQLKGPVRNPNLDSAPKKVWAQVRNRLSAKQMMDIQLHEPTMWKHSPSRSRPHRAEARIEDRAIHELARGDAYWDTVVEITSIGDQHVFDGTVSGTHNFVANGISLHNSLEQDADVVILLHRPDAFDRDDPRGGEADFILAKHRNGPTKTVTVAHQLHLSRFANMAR

[4] = target: Glucose-6-phosphate 1-dehydrogenase (Homo sapiens, UniProt P11413); test: human G6PD enzyme inhibitors, dose response, selectivity assay for P. falciparum G6PD inhibitor project, biochemical, fluorescence (AID 504792); type: functional
[5] = Luminescence Cell-Based Dose Retest to Confirm Inhibitors of Cancer Stem Cells. [Related pubchem assays (depositor defined):AID2717, AID2721]; type: functional; details: Homo sapiens
[6] = target: Protein-tyrosine kinase 2-beta (Homo sapiens, UniProt Q14289);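 further: potency of inhibitors of PYK2 kinase phosphorylation of poly-GT substrate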
Vero [7] = test: host cell cytotoxicity of antiviral hits, dose response, cytotoxicity control for West Nile virus antiviral project, secondary assay (AID 1650); type: functional; details: Chlorocebus sabaeus
Cytochrome P450 2C19 = Cytochrome P450 2C19 (Homo sapiens, UniProt P33261); test: Cytochrome panel assay with activity outcomes. Panel member name: p450-cyp2c19 Compounds with AC50 equal or less than 10 uM are considered active; type: functional; details: read-out: AC50
Cytochrome P450 3A4 = Cytochrome P450 3A4 (Homo sapiens, UniProt P08684);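 further: CYP3A4 tested as one member of a cytochrome P450 panel screen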
[8] = non-specific cell cytotoxicity, dose response, cytotoxicity control for PAX8 inhibitor project, plate reader, dry powder samples (AID 743021); type: functional, cell-based
Vero [9] = test: cells; type: functional; details: Chlorocebus sabaeus
[10] = cytotoxicity in HEK-293T cells, dose response, cytotoxicity control for TCR NF-kB inhibitor project, luminescence, T-cell screen hits (AID 489026); type: functional, cell-based;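 further: cells exposed to compound about 14 hours before the viability readout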
[11] = cytotoxicity toward DRD oncogenic fibroblasts, dose response, cell-based, non-viral oncogenic, luminescence (AID 1934); type: functional; details: Homo sapiens
[12] = Luminescence-based counterscreen assay for KLF5 inhibitors: dose response cell-based high throughput screening assay to identify cytotoxic compounds using the IEC-6 intestinal epithelial cell line. [Related pubchem assays: 1700 (Primary screen.), 1834 (Confirmation screen.), 1858 (Summary AID.), 1905 (Counterscreen.)]; type: functional
Paired box protein Pax-8 = Paired box protein Pax-8 (Homo sapiens, UniProt Q06710); test: inhibitors of PAX8-driven TPO luciferase reporter, dose response, RMG-I cells, cherry-pick (AID 687027); type: functional, cell-based;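 further: luciferase reporter driven by Pax8 target thyroperoxidase promoter measured by SteadyGlo luminescence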
BJ [13] = test: cytotoxicity toward BJ-TERT fibroblasts, dose response, cell-based, RAS-independent, luminescence (AID 1933); type: functional; details: Homo sapiens
BJ [14] = test: cells; type: functional, cell-based; details: Homo sapiens
BJ [15] = test: cytotoxicity toward Ras-transformed BJeLR fibroblasts, dose response, cell-based, alamar blue fluorescence, cherrypicked samples (AID 2631); type: functional; details: Homo sapiens;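 further: confirmatory dose-response assay in RAS-dependent BJ fibroblasts engineered with TERT, LT and ST, with cytotoxicity read by fluorescence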
BJ [16] = test: cytotoxicity toward BJ-TERT-LT-ST fibroblasts, dose response, cell-based, RAS-independent, luminescence (AID 1935); type: functional; details: Homo sapiens;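 further: BJ fibroblasts immortalized with TERT plus LT and ST oncogenes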
Cytochrome P450 1A2 = target: T7, Cytochrome P450 1A2 (Homo sapiens, UniProt P05177);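 further: PubChem cytochrome P450 panel assay, CYP1A2 panel member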
T7 sequence (P05177 whole entry): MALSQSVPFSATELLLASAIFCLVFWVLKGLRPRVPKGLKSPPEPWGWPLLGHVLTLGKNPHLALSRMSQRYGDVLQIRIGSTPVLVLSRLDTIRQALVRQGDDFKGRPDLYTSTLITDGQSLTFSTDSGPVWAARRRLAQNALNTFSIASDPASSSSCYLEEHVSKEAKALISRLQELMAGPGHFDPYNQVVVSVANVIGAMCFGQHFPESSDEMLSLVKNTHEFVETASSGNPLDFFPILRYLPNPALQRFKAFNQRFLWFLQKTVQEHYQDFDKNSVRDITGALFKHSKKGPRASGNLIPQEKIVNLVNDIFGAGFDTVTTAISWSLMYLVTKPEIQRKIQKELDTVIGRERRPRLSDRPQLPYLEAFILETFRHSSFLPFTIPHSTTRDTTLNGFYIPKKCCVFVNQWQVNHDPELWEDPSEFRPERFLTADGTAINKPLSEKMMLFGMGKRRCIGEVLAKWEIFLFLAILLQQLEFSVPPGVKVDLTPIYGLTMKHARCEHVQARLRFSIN

Chain of Protein-tyrosine kinase 2-beta (Q14289 whole entry): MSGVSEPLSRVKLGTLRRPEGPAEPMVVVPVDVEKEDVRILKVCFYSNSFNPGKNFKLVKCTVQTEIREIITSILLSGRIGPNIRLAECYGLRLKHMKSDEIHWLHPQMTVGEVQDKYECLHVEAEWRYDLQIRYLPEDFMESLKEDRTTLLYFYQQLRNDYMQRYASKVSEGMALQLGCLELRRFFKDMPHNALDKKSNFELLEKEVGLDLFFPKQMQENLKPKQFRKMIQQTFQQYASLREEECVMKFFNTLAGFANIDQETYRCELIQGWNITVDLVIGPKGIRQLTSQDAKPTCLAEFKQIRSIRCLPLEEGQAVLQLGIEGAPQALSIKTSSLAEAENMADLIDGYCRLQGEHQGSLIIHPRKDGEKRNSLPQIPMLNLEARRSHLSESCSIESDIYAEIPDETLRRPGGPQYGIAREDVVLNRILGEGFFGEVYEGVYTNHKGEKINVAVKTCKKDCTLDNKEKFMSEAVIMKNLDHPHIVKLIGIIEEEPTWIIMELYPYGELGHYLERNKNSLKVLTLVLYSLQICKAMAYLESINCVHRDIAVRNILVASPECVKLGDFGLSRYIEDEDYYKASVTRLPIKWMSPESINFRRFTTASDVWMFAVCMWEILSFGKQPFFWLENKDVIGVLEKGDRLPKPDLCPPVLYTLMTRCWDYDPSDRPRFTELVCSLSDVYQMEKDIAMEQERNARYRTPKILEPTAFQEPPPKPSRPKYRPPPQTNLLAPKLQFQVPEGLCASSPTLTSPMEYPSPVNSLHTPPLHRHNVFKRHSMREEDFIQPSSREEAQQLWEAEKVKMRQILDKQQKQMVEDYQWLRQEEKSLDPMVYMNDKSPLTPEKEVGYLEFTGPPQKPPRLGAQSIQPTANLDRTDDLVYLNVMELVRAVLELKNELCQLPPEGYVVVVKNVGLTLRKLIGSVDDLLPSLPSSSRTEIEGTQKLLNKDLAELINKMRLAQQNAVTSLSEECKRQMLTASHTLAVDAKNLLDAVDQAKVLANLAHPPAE
Chain of Cytochrome P450 3A4 (P08684 whole entry): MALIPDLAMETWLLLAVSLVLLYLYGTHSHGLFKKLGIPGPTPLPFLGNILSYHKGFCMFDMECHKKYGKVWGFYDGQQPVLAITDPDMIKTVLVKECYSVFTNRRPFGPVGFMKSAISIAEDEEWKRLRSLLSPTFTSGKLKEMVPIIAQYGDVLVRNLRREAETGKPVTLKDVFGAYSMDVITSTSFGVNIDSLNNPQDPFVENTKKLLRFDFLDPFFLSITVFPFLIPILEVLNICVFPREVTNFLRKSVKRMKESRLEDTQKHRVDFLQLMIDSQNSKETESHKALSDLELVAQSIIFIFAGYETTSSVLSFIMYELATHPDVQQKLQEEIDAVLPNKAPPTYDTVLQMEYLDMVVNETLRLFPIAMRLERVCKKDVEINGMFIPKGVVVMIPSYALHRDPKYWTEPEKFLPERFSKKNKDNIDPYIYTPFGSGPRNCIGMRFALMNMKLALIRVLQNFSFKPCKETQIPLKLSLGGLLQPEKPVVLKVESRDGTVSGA
Chain of Cytochrome P450 2C19 (P33261 whole entry): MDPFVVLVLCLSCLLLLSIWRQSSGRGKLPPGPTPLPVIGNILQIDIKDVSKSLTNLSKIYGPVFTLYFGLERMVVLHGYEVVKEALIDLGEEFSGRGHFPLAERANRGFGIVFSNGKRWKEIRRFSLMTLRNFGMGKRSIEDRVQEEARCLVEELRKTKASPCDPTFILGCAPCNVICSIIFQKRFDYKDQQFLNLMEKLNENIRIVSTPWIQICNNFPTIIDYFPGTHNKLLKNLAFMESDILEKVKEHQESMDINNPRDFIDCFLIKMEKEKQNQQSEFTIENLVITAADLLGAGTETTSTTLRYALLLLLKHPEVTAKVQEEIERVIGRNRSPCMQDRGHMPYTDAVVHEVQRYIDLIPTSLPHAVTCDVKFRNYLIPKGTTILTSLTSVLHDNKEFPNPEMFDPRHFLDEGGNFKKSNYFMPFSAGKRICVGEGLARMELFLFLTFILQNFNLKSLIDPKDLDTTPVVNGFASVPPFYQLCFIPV
Chain of Glucose-6-phosphate 1-dehydrogenase (P11413 whole entry): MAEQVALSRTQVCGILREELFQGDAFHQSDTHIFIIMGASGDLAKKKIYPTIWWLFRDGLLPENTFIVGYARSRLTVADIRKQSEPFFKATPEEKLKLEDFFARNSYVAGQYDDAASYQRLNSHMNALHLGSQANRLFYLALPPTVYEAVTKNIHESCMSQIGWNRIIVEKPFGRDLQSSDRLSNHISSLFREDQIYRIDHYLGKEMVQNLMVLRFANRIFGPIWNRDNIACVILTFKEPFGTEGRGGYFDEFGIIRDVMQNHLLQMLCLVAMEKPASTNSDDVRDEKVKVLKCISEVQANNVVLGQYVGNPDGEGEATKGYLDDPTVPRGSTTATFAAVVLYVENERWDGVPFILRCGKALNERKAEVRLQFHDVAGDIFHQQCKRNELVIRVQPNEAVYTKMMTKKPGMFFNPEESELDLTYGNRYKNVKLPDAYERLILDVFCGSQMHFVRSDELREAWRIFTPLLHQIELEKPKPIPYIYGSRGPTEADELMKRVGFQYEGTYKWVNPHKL
Chain of Large T antigen (P03070 whole entry): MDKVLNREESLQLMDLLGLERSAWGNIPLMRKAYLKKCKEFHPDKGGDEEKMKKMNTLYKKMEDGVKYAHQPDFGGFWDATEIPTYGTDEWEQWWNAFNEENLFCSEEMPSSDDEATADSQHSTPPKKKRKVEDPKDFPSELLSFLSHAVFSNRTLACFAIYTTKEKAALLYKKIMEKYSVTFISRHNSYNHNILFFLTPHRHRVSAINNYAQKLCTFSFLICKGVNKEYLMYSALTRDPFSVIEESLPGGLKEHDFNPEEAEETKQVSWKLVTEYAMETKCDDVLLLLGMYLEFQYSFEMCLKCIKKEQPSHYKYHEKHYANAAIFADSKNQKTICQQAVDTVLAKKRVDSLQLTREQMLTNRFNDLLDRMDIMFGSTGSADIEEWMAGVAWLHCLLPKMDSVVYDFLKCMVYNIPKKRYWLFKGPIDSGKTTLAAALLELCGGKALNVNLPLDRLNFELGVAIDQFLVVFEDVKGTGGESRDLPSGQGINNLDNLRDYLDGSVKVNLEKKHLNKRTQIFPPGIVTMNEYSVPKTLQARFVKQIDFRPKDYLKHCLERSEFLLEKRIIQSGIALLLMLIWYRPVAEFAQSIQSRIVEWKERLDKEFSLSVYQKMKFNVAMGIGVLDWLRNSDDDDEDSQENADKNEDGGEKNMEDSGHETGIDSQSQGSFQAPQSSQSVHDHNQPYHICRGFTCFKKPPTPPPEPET
Chain of Paired box protein Pax-8 (Q06710 whole entry): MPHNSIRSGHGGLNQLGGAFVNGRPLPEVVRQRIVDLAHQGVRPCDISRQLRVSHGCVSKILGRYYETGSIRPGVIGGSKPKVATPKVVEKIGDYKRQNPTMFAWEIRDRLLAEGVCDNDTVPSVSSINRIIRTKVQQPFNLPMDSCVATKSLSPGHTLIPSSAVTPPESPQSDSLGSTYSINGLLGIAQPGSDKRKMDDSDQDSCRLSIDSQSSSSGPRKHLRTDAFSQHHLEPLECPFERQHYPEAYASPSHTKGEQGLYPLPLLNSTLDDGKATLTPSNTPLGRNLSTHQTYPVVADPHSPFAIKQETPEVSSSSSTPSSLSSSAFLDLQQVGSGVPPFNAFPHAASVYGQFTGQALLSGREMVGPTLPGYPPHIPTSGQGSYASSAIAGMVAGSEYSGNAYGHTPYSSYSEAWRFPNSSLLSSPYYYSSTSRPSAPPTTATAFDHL

O=C1CCCCC1Oc1ccc2ccc(=O)oc2c1 (stereo unspecified)
IC50 [1]: > 100 µM (active)

O=C(CSc1nnc(-c2cccnc2)n1Cc1ccco1)c1ccc(Br)cc1
IC50 [1]: > 100 µM (active)

CCC(=O)c1ccccc1OCCCN1CCC(Cc2ccccc2)CC1
IC50 [2]: > 96.6 µM (inactive)

Nc1c(O)cccc1C(=O)O
EC50 (Protein RecA): 5.43 µM (active) | AC50 (Caspase-6): 1.59 µM (active) | AC50 (Caspase-7): 6.14 µM (active) | IC50 (Large T antigen): 20.1 µM (active) | AC50 (Caspase-9): > 70 µM (inactive) | AC50 [3]: > 380 µM (inactive) | IC50 [4]: 24 µM (inactive)

COc1ccc2nc(C)cc(SCC(=O)N/N=C/c3cccc4ccccc34)c2c1
AC50 [5]: 1.11 µM (active) | IC50 [6]: 2.57 µM (active)

C[C@@H]1CC=C[C@H]2[C@H]1C(=O)N(Cc1ccccc1)[C@H]2c1ccc(F)c(Br)c1
EC50 (Protein RecA): 23 µM (active) | CC50 (Vero [7]): 24.1 µM (active) | AC50 [3]: 5.04 µM (active)

COC(=O)C(Cc1c[nH]c2ccccc12)NC(=O)C(C)C (stereo unspecified)
AC50 (Cytochrome P450 2C19): 22.4 µM (inconclusive) | AC50 (Cytochrome P450 3A4): 31.6 µM (inconclusive) | IC50 [1]: > 100 µM (active)

C[C@]12CCC3C(CCC4=CC(O)CC[C@@]43/C=N/O)C1(O)CCC2C1=CC(=O)OC1 (stereo partly specified)
AC50 [8]: 50.2 µM (active) | CC50 (Vero [9]): 1.34 µM (active) | IC50 [10]: > 80 µM (inactive) | EC50 [11]: 2.33 µM (active) | IC50 [12]: > 39.8 µM (not active) | CC50 (Vero [7]): 0.79 µM (active) | AC50 (Paired box protein Pax-8): 2.22 µM (active) | EC50 (BJ [13]): 1.9 µM (active) | EC50 (BJ [14]): 2.56 µM (active) | EC50 (BJ [15]): 0.391 µM (active) | EC50 (BJ [16]): 2.36 µM (inconclusive)

CC(C)(C)C(=O)NC(=C(Cl)Cl)P(=O)(O)O
AC50 (Cytochrome P450 1A2): 0.1 µM (inconclusive) | IC50 [6]: 9.26 µM (active)
